Laboratory results reported in patent US20150018417A1, “FATTY ACIDS AS ANTI-INFLAMMATORY AGENTS” (University of Pittsburgh - Of the Commonwealth System of …, priority 2012, published 2015).

Experiments:
RAW264.7 cells = experiment: EFAD formation in activated RAW264.7 cells treated with inhibitors; type: cell-based, murine; conditions: RAW264.7 activated with Kdo2 and IFNγ, 20 h post activation
[1] = tested on: inducible nitric oxide synthase (iNOS); experiment: iNOS induction and nitrite accumulation in activated RAW264.7 cells; type: cell-based, murine; conditions: RAW264.7 activated with Kdo2 and IFNγ
Protocol: FIG. 11 illustrates modulation of anti-oxidant and inflammatory responses by 17-oxoDHA and 17-oxoDPA. RAW264.7 cells were treated with increasing concentration of 17-oxoDHA and 17-oxoDPA. (a) Cells were harvested 1 h after treatment and Nrf2 levels were quantified in nuclear extracts, (b) Cells were harvested 18 h after treatment and HO—I and Nqol (upper band) levels were measured by western blot, (c, d) RAW264.7 cells were treated with increasing concentration of 17-oxoDHA and 17-oxoDP A for 6 h and Kdo2+IFNγ were added. Samples were collected at 12 h. IL-6, MCP-I and IL-IO levels were measured in the cell media by Quantikine ELISA Kit (R&D Systems) and normalized by the total protein content (c); Nitrite levels were measured in the cell media and normalized by the total protein content and iNOS and Cox-2 levels were measured in total cell lysates (d); (e) PPARγ beta-lactamase reporter assays were performed for Rosiglitazone, 17-OxoDPA, 17-OxoDHA, 15d-PGJ2, 17-hydroxyDHA, DPA, and DHA with concentrations ranging from 0.5-10,000 nM.
For activation experiments RAW 264.7 cells were seeded, incubated overnight, and treated at approximately 80% confluence with the indicated compounds 47. Non-activated controls were treated with vehicle alone. During activation, cells were maintained in an activation medium (SMEM) of Minimum Essential Medium Eagle (Cellgro, 17-305)+2% FBS supplemented with L-glutamine (584 mg/L), Na-pyruvate (110 mg/L) and Hepes (3.57 g/L, pH 7.4). For inhibition studies, inhibitors were added to the medium at the time of activation and MTT assays were used to confirm cell viability. Cells were harvested 20 h post activation (unless otherwise indicated) in 50 mM phosphate buffer (pH 7.4) and snap frozen in liquid N2. […]
Protein concentrations of samples were measured by BCA assay (Pierce). […] Actin (detected by Sigma A2066) was used as loading control. […]
(§1) Total nitrite and nitrate concentration was measured in cell culture media by Griess reaction using the Nitrate/Nitrite Colorimetric Assay Kit (Cayman Chemical).

[2] = tested on: inducible nitric oxide synthase (iNOS); experiment: iNOS induction and nitrite accumulation in bone marrow-derived macrophages; type: cell-based, C57BL/6 mice; conditions: BMDMs activated with Kdo2 and IFNγ
Protocol: FIG. 24 illustrates that 17-oxoDHA and 7-oxoDPA modulate the inflammatory response. in bone marrow-derived macrophages. Cells were treated with increasing concentration of 17-oxoDHA and 17oxoDPA for 6 h and Kdo2 Lipid A (0.5 μg/ml) and IFNγ were added. Samples were collected at 12 h. (2) Nitrite levels were measured in the cell media and normalized to the total protein content: iNOS and COX-2 levels were measured in total cell lystaes. (b) IL-6, MCP-I, and IL-10 levels were measured in cell media and normalized to the total protein content.
Bone marrow derived macrophages were isolated from C57BL/6 mice according to the protocol developed by Davies. See Davies, J. Q. & Gordon, S. Isolation and culture of murine macrophages. Methods Mol Biol 290, 91-103 (2005).
Protein concentrations of samples were measured by BCA assay (Pierce). The following primary antibodies were used: Nrf2 (Santa Cruz, sc-722), HO—I (Assay Design, SPA-896), Nqol (Abeam, ab34173), Cox-2 (Santa Cruz, sc-1745), iNOS (BD Transduction Lab, 610332), Lamin Bl (Abeam, ab16048). Actin (detected by Sigma A2066) was used as loading control. Secondary antibodies were purchased from Santa Cruz Biotechnology.
as §1

NF-κB and Stat-1 = experiment: p65 nuclear translocation and DNA binding, Stat1 phosphorylation; type: cell-based, murine; conditions: RAW264.7
Excerpt: The expression of iNOS and the analyzed pro-inflammatory cytokines is dependent on the activity of NF-κB and Stat-1. It has been reported that electrophilic lipids can repress the activation of these transcriptional factors either by direct adduction to the DNA binding domain of the NF-K B subunit p65 and to the inhibitor IκBα or via indirect mechanisms.

GAPDH = GAPDH (Oryctolagus cuniculus, UniProt P46406); experiment: In vitro alkylation of GAPDH, mass spectrometric analysis; type: biochemical, rabbit
Excerpt: FIG. 21 illustrates the mass spectrometric analysis of an in vitro reaction of GAPDHvith EFAD-2. Four residues were detected and confirmed-as being targets for EfAD-2 in treated rabbit GAPDH. The peptides were alkylated as Cys244 (a), His163 (b), Cys149 (c) and His328 (d). Upper panels show EFAD-2 modified peptides and lower panels show spectra from corresponding native peptide.
To more specifically test the binding of EFADs to nucleophilic residues in proteins, we tested whether GAPDH was alkylated by EFADs. This enzyme is a well-characterized target for electrophiles and becomes easily inactivated by nitrosylation, oxidation or nucleophilic addition.

GAPDH, sequence (P46406 whole entry): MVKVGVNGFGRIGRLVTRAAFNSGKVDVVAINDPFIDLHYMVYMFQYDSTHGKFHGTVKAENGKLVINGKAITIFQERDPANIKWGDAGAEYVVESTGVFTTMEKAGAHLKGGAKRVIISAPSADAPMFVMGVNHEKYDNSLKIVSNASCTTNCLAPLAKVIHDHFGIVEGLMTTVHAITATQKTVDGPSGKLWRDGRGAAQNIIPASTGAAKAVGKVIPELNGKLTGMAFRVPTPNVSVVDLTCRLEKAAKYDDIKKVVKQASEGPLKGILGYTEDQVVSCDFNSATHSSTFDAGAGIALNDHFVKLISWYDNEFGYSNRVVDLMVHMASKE

Compound: CCC=CCC=CC=CC(=O)CC=CCC=CCCCCCC(=O)O (mixture of isomers) [EFAD-2]
- EFAD level +Celecoxib (↓COX) (RAW264.7 cells): ↓
- EFAD level +Aspirin (↓COX) (RAW264.7 cells; ASA 200 μM): ↑
- EFAD level +ETYA (↓COX) (RAW264.7 cells; ETYA 25 μM): ↓
- EFAD level +MAFP (↓PLA2) (RAW264.7 cells; MAFP 25 μM): ↓
- EFAD level +Diclofenac (↓COX) (RAW264.7 cells; diclofenac 1 μM): ↓
- EFAD level +Genisteine (RAW264.7 cells; genistein 25 μM): ↓
- EFAD level +Ibuprofen (↓COX) (RAW264.7 cells; ibuprofen 100 μM): ↓
- EFAD level +Indomethacin (↓COX) (RAW264.7 cells; indomethacin 25 μM): ↓
- iNOS induction and accumulation of nitrite in the cell media [1]: strongly and dose-dependently repressed
- iNOS induction and accumulation of nitrite in the cell media [2]: strongly and dose-dependently repressed
- p65 nuclear translocation and DNA binding, Stat1 phosphorylation (NF-κB and Stat-1): did not affect
- adduct formation with GAPDH residues (GAPDH): readily formed adducts with Cys244, Cys149, His 163 and His328
